Where “and” joins values, the source holds several entries; their conditions need not be identical. Identical values can stand only once. Inconclusive results and toxic doses are left out.
Test system: L1210 leukemia ip in BDF1 mice, survival T/C
Test: NCI In Vivo Anticancer Drug Screen. Data for tumor model L1210 Leukemia (intraperitoneal) in B6D2F1 (BDF1) mice
Conditions: endpoint: mean survival time, higher = longer survival
Summary of the method: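 Ratio derived from survival: compound-dosed mice over vehicle-dosed mice, all bearing a transplantable tumor.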

[1] = dose: 100.0 mg/kg/injection, schedule: Q01DX001 (ip), vehicle: saline
[2] = dose: 200.0 mg/kg/injection, schedule: Q01DX001 (ip), vehicle: carboxymethylcellulose (CMC)
[3] = dose: 100.0 mg/kg/injection, schedule: Q01DX009 (ip), vehicle: Klucel (hydroxypropylcellulose) (HPC)
[4] = dose: 100.0 mg/kg/injection, schedule: Q04DX003 (ip), vehicle: Klucel (hydroxypropylcellulose) (HPC)
[5] = dose: 200.0 mg/kg/injection, schedule: Q04DX003 (ip), vehicle: Klucel (hydroxypropylcellulose) (HPC)
[6] = dose: 400.0 mg/kg/injection, schedule: Q04DX003 (ip), vehicle: Klucel (hydroxypropylcellulose) (HPC)
[7] = dose: 100.0 mg/kg/injection, schedule: Q01DX009 (ip), vehicle: saline with Tween-80
[8] = dose: 100.0 mg/kg/injection, schedule: Q04DX003 (ip), vehicle: saline with Tween-80
[9] = dose: 200.0 mg/kg/injection, schedule: Q01DX009 (ip), vehicle: saline with Tween-80
[10] = dose: 200.0 mg/kg/injection, schedule: Q04DX003 (ip), vehicle: saline with Tween-80
[11] = dose: 200.0 mg/kg/injection, schedule: Q01DX001 (ip), vehicle: saline
[12] = dose: 400.0 mg/kg/injection, schedule: Q01DX001 (ip), vehicle: saline
[13] = dose: 100.0 mg/kg/injection, schedule: Q01DX001 (ip), vehicle: carboxymethylcellulose (CMC)
[14] = dose: 400.0 mg/kg/injection, schedule: Q01DX001 (ip), vehicle: carboxymethylcellulose (CMC)
[15] = dose: 50.0 mg/kg/injection, schedule: Q01DX009 (ip), vehicle: saline
[16] = dose: 100.0 mg/kg/injection, schedule: Q01DX009 (ip), vehicle: saline
[17] = dose: 200.0 mg/kg/injection, schedule: Q01DX009 (ip), vehicle: saline
[18] = dose: 100.0 mg/kg/injection, schedule: Q04DX003 (ip), vehicle: saline
[19] = dose: 200.0 mg/kg/injection, schedule: Q04DX003 (ip), vehicle: saline

## COc1cc(C=Nc2ccc(-c3nc(Cc4ccccc4)sc3C)cc2)ccc1N(CCCl)CCCl
dose: 4.0 mg/kg/injection, schedule: Q01DX009 (ip), vehicle: saline
  T/C: 102 % of control
dose: 6.0 mg/kg/injection, schedule: Q01DX009 (ip), vehicle: Klucel (hydroxypropylcellulose) (HPC)
  T/C: 109 % of control
dose: 6.0 mg/kg/injection, schedule: Q01DX009 (ip), vehicle: saline
  T/C: 103 % of control
dose: 8.0 mg/kg/injection, schedule: Q01DX009 (ip), vehicle: Klucel (hydroxypropylcellulose) (HPC)
  T/C: 112 % of control
dose: 8.0 mg/kg/injection, schedule: Q01DX009 (ip), vehicle: carboxymethylcellulose (CMC)
  T/C: 124 % of control
dose: 8.0 mg/kg/injection, schedule: Q01DX009 (ip), vehicle: saline
  T/C: 102 % of control
dose: 13.0 mg/kg/injection, schedule: Q01DX001 (ip), vehicle: Klucel (hydroxypropylcellulose) (HPC)
  T/C: 109 % of control
dose: 13.0 mg/kg/injection, schedule: Q01DX001 (ip), vehicle: saline
  T/C: 93 % of control
dose: 13.0 mg/kg/injection, schedule: Q01DX009 (ip), vehicle: saline
  T/C: 100 % of control
dose: 20.0 mg/kg/injection, schedule: Q01DX001 (ip), vehicle: Klucel (hydroxypropylcellulose) (HPC)
  T/C: 113 % of control
dose: 20.0 mg/kg/injection, schedule: Q01DX001 (ip), vehicle: saline
  T/C: 91 % of control
dose: 20.0 mg/kg/injection, schedule: Q01DX009 (ip), vehicle: carboxymethylcellulose (CMC)
  T/C: 106 % of control
dose: 20.0 mg/kg/injection, schedule: Q01DX009 (ip), vehicle: saline
  T/C: 105 % of control
dose: 30.0 mg/kg/injection, schedule: Q01DX001 (ip), vehicle: Klucel (hydroxypropylcellulose) (HPC)
  T/C: 124 % of control
dose: 30.0 mg/kg/injection, schedule: Q01DX001 (ip), vehicle: saline
  T/C: 102 % of control
dose: 30.0 mg/kg/injection, schedule: Q01DX009 (ip), vehicle: Klucel (hydroxypropylcellulose) (HPC)
  T/C: 153 % of control
dose: 44.0 mg/kg/injection, schedule: Q01DX001 (ip), vehicle: carboxymethylcellulose (CMC)
  T/C: 122 % of control
dose: 45.0 mg/kg/injection, schedule: Q01DX001 (ip), vehicle: Klucel (hydroxypropylcellulose) (HPC)
  T/C: 121 % of control
dose: 45.0 mg/kg/injection, schedule: Q01DX001 (ip), vehicle: carboxymethylcellulose (CMC)
  T/C: 166 % of control
dose: 45.0 mg/kg/injection, schedule: Q01DX001 (ip), vehicle: saline
  T/C: 110 % of control
dose: 66.0 mg/kg/injection, schedule: Q01DX001 (ip), vehicle: saline
  T/C: 106 % of control
[1]
  T/C: 112 % of control and 124 % of control
dose: 150.0 mg/kg/injection, schedule: Q01DX001 (ip), vehicle: carboxymethylcellulose (CMC)
  T/C: 108 % of control
[2]
  T/C: 97 % of control

## CC(C)(C)OC(=O)CCN1CC1
dose: 75.0 mg/kg/injection, schedule: Q01DX001 (ip), vehicle: saline
  T/C: 109 % of control
dose: 150.0 mg/kg/injection, schedule: Q01DX001 (ip), vehicle: saline
  T/C: 104 % of control

## CCCCOP(=O)(NC12CC3CC(CC(C3)C1)C2)OCCCC
[3]
  T/C: 97 % of control
[4]
  T/C: 100 % of control
dose: 200.0 mg/kg/injection, schedule: Q01DX009 (ip), vehicle: Klucel (hydroxypropylcellulose) (HPC)
  T/C: 97 % of control
[5]
  T/C: 92 % of control
dose: 400.0 mg/kg/injection, schedule: Q01DX009 (ip), vehicle: Klucel (hydroxypropylcellulose) (HPC)
  T/C: 100 % of control
[6]
  T/C: 96 % of control

## COCCNP(=S)(OC)OC
[7]
  T/C: 93 % of control
[8]
  T/C: 101 % of control
[9]
  T/C: 95 % of control
[10]
  T/C: 106 % of control
dose: 400.0 mg/kg/injection, schedule: Q01DX009 (ip), vehicle: saline with Tween-80
  T/C: 101 % of control
dose: 400.0 mg/kg/injection, schedule: Q04DX003 (ip), vehicle: saline with Tween-80
  T/C: 92 % of control

## CCCn1c2c(c(=O)n(CC)c1=O)S(=O)C(OCC)C(=O)N2 (stereo not given)
dose: 78.0 mg/kg/injection, schedule: Q01DX Z (ip), vehicle: other
  T/C: 92 % of control
dose: 116.0 mg/kg/injection, schedule: Q01DX Z (ip), vehicle: other
  T/C: 97 % of control and 104 % of control
dose: 175.0 mg/kg/injection, schedule: Q01DX Z (ip), vehicle: other
  T/C: 98 % of control and 87 % of control
dose: 262.5 mg/kg/injection, schedule: Q01DX Z (ip), vehicle: other
  T/C: 93 % of control and 103 % of control

## CC(C)(CO)N=Cc1ccccc1Br
[1]
  T/C: 110 % of control
[11]
  T/C: 98 % of control
[12]
  T/C: 90 % of control

## O=[N+]([O-])c1ccc(S(=O)C2CCCCC2Cl)c([N+](=O)[O-])c1 (stereo not given)
[3]
  T/C: 111 % of control

## CC12CC3CC(Br)(C1)CC(C#N)(C3)C2 (stereo not given)
dose: 6.0 mg/kg/injection, schedule: Q04DX002 (ip), vehicle: Klucel (hydroxypropylcellulose) (HPC)
  T/C: 109 % of control
dose: 12.0 mg/kg/injection, schedule: Q04DX002 (ip), vehicle: Klucel (hydroxypropylcellulose) (HPC)
  T/C: 98 % of control
dose: 25.0 mg/kg/injection, schedule: Q04DX002 (ip), vehicle: Klucel (hydroxypropylcellulose) (HPC)
  T/C: 94 % of control

## Cc1ccc(S(=O)(=O)N2CCc3ccccc3C=C2Br)cc1
[13]
  T/C: 100 % of control
[2]
  T/C: 102 % of control
[14]
  T/C: 112 % of control

## C=CCNC(=S)Nc1ccc(N(C)C)cc1
dose: 50.0 mg/kg/injection, schedule: Q01DX009 (ip), vehicle: saline with Tween-80
  T/C: 94 % of control
[7]
  T/C: 100 % of control
[8]
  T/C: 103 % of control
[9]
  T/C: 103 % of control
[10]
  T/C: 95 % of control

## COC(=O)Cn1nnc2ccccc21
[15]
  T/C: 97 % of control
[16]
  T/C: 105 % of control
[17]
  T/C: 87 % of control

## Nc1ccc(Nc2ccc(N)cc2)cc1
dose: 5.0 mg/kg/injection, schedule: Q01DX001 (ip), vehicle: saline
  T/C: 101 % of control
dose: 10.0 mg/kg/injection, schedule: Q01DX001 (ip), vehicle: saline
  T/C: 113 % of control

## CCC(=O)N1CCOCC1
[18]
  T/C: 102 % of control
[19]
  T/C: 105 % of control
dose: 400.0 mg/kg/injection, schedule: Q04DX003 (ip), vehicle: saline
  T/C: 98 % of control

## Nc1nc2nc[nH]c2c(N)c1Br (tested in a mixture with another compound)
[15]
  T/C: 95 % of control
dose: 50.0 mg/kg/injection, schedule: Q04DX003 (ip), vehicle: saline
  T/C: 96 % of control
[1]
  T/C: 100 % of control
[16]
  T/C: 92 % of control
[18]
  T/C: 94 % of control
[11]
  T/C: 97 % of control
[17]
  T/C: 114 % of control
[19]
  T/C: 105 % of control

## O=C(NCCO)Nc1cccc2c1CCCC2
dose: 100.0 mg/kg/injection, schedule: Q04DX002 (ip), vehicle: saline with Tween-80
  T/C: 108 % of control
dose: 200.0 mg/kg/injection, schedule: Q04DX002 (ip), vehicle: saline with Tween-80
  T/C: 104 % of control
dose: 400.0 mg/kg/injection, schedule: Q04DX002 (ip), vehicle: saline with Tween-80
  T/C: 87 % of control

## O=[N+]([O-])c1ccc(OCCOCCOc2ccc(S(=O)(=O)F)cc2)c(Cl)c1
dose: 100.0 mg/kg/injection, schedule: Q01DX001 (ip), vehicle: saline with Tween-80
  T/C: 89 % of control
dose: 200.0 mg/kg/injection, schedule: Q01DX001 (ip), vehicle: saline with Tween-80
  T/C: 97 % of control
dose: 400.0 mg/kg/injection, schedule: Q01DX001 (ip), vehicle: saline with Tween-80
  T/C: 103 % of control

## Clc1ccc(-c2nc3ccccc3cc2N2CCOCC2)cc1
[4]
  T/C: 108 % of control
[5]
  T/C: 103 % of control
[6]
  T/C: 100 % of control

## Cc1ccc(S(=O)(=O)N2CCc3ccccc3C3(C2)OCCO3)cc1
[13]
  T/C: 96 % of control
[2]
  T/C: 96 % of control
[14]
  T/C: 98 % of control

## CC(=O)OCC(=O)[C@@]12OC(C)(C)O[C@@H]1C[C@H]1[C@@H]3CC(C=O)=C4C=C(OCCCl)CC[C@]4(C)[C@@]3(F)[C@@H](O)C[C@@]12C
[3]
  T/C: 95 % of control

## CCCCCCCCCCSc1ncnc2c1ncn2CO
dose: 50.0 mg/kg/injection, schedule: Q01DX001 (ip), vehicle: saline
  T/C: 91 % of control
[1]
  T/C: 101 % of control
[11]
  T/C: 117 % of control
[12]
  T/C: 120 % of control
